According to patent publication US20030207340A1, “Sequences encoding human neoplastic marker” (priority 2002, published 2003):

Tests used:
[1] = system: COS cells stably transfected with tNOX cDNA; assay: Growth inhibition of COS cells transfected with tNOX cDNA; assay type: cell-based, African monkey; conditions: for EC50: Primates, COS cells stably transfected with tNOX cDNA, growth inhibition; for change of growth response (susceptibility) by tNOX cDNA transfection: tNOX cDNA-transfected vs control COS cells
Description: Transient transfection of COS cells were with pcDNA3.1 (Invitrogen) and a Calcium Phosphate Transfection Kit (Invitrogen, Carlsbad, Calif.) according to the manufacturer's protocol. ttNOX cDNA was first amplified by PCR using primers 5═-[…]-3′ (forward; SEQ ID NO: 12) and 5′-[…]-3′ (reverse, SEQ ID NO: 13). The PCR product was then amplified using primers 5′-[…]-3′ (forward, SEQ ID NO: 14) and 5′-[…]-3′ (reverse, SEQ ID NO: 15) to construct a HindIII site at 5′ end of the nontemplate strand. The product was double digested using HindIII and BamHI enzymes. The digested products were separated on an agarose gel and extracted using a DNA Extraction Kit (Qiagen, Valencia, Calif.). The DNA was then ligated into a pcDNA3.1 vector that contains a cytomegalovirus enhancer-promoter for high levels of expression. For propagation of the plasmid DNA, the ligation product was used to transform XL-1 blue competent cells using heat pulse technique (Sambrook et al., 1989, supra). The positive clones were identified by PCR. The resulting plasmid was then used to transfect COS cells.
(§1) COS-1 cells (African monkey kidney cell line), were plated one day prior to transfection at 4×10^5 cells per 100-mm dish. Thirty-six μl of 2 M CaCl2 and 30 μg of pcDNA3.1 or pcDNA3.1-tNOX in 300 μl sterile H2O were slowly added dropwise into 300 μl of 2× Hepes Buffered Saline (HBS) at room temperature for 30 min. The transfection mixtures then were added dropwise to the media to the cells and incubated overnight at 37C. After overnight exposure to the DNA precipitate, the cells were washed twice with PBS and 3 ml of DMSO were added for 2.5 min. The DMSO then was removed and cells were fed with fresh media for 2-3 days. tNOX expression was evaluated on the basis of enzymatic activity and Western blot analysis. For selection of stable transfectants, antibiotic G418 sulfate was used (Invitrogen, Carlsbad, Calif.). After the COS cells were transfected with the tNOX cDNA expression plasmid, 0.5 mg/ml of G418 sulfate was added into the media twice a week and the cultures were maintained until colonies 2 to 3 mm in diameter were formed. A total of three colonies were selected and trypsinized individually and then transferred into wells of a 24-well plate and then into a 35 mm petri dish. Cells were harvested at 80% confluency. Transfections were confirmed by immunoblotting.

COS cells = assay: Growth inhibition of control COS cells (nontransfected / vector alone); assay type: cell-based, African monkey; conditions: for EC50: Primates, nontransfected COS cells, growth inhibition
Protocol: as §1

ttNOX (truncated tNOX) = biological target: T1, ttNOX (truncated tNOX) (Homo sapiens, UniProt Q16206); assay: NADH oxidase activity of ttNOX expressed in E. coli (induced bacterial extract); assay type: biochemical
T1 construct: made in house; host or cells: E. coli BL21 (DE3), vector pET-11b; crude induced bacterial extract
T1 sequence (Q16206 220-610): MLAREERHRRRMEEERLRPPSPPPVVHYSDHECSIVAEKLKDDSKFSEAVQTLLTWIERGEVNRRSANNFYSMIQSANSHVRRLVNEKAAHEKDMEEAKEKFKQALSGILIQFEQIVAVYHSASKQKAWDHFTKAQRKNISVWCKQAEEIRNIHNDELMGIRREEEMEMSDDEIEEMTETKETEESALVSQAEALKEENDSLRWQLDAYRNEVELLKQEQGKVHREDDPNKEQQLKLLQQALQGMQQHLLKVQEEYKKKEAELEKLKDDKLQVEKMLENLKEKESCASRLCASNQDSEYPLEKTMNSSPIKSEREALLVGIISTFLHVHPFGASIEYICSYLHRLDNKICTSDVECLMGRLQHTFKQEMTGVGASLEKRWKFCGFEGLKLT
Description: tNOX cDNA from clone 1 was expressed in E. coli either as a truncated form (ttNOX) (beginning at M220), as a fusion protein with six histidine residues (ttNOX-his) fused to the amino terminus of ttNOX, or as a processed tNOX (beginning at G327). First, the open reading frame of ttNOX DNA and nucleotides of 3′-untranslated region were amplified by PCR, digested with NdeI and BamHI followed by ligation into the protein expression vector pET-11b. All primers were synthesized by the Laboratory for Macromolecular Structure (Purdue University, IN). Primers for PCR amplification of ttNOX were 5′-[…]-3′ (forward, SEQ ID NO: 6) and 5′[…]-3′ (reverse, SEQ ID NO: 7). Primers for processed form of tNOX were 5′-[…]-3′ (forward, SEQ ID NO: 8) and 5′-[…]-3′ (reverse, SEQ ID NO: 9). Primers for histidine-tagged ttNOX were 5′-[…]-3′ (forward, SEQ ID NO: 10) and 5′-[…]-3′ (reverse, SEQ ID NO: 11). The forward primer was designed to incorporate six histidine residues to the amino terminus of tNOX protein. The amplification performed was with an initiation step of 94C. for 90 sec, followed by 90 sec of denaturation at 94C., 90 sec of annealing at 55C., and 90 sec of extension at 72C. for 29 cycles.
E. coli [BL21 (DE3)] were transfected and grown in LB medium containing ampicillin (100 μg/ml) for 16 hr at 25C. and harvested. DNA sequences of the ligation products were confirmed by DNA sequencing. Expressions of all forms of tNOX were confirmed by SDS-PAGE with silver staining and immunoblotting. Immunoblot analysis was with anti-tNOX monoclonal antibody. Detection used alkaline […] conjugated anti-mouse antibody.

tNOX = biological target: T2, tNOX (Homo sapiens, UniProt Q16206); conditions: cited from earlier work
T2 sequence (Q16206 1-610): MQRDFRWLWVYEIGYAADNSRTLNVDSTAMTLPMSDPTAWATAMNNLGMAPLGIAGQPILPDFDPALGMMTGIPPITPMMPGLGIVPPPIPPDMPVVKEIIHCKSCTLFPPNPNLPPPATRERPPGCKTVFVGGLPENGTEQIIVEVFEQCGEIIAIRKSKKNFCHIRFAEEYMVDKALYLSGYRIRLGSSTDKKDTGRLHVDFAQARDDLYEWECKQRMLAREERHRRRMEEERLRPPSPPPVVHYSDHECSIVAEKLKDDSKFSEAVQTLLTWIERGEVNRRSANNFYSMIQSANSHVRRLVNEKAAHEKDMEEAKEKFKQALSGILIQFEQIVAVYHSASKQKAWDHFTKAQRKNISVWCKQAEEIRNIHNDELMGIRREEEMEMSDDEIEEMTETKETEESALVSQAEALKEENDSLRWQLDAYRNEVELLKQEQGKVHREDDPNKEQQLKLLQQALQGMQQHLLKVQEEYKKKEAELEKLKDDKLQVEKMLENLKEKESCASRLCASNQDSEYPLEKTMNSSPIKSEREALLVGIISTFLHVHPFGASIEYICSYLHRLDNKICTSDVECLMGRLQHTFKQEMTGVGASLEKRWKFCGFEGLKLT

CNOX = conditions: cited from earlier work
[2] = system: plasma membranes prepared from HeLa cells; conditions: cited from earlier work

Row | Compound | EC50 [1] [nM] | change of growth response (susceptibility) by tNOX cDNA transfection [1] | EC50 (COS cells) [nM] | other results
1 | CN(Cc1cnc2nc(N)nc(N)c2n1)c1ccc(C(=O)N[C@@H](CCC(=O)O)C(=O)O)cc1 [Methotrexate, methotrexate] | 1000 | unaffected | 1000 | –
2 | COc1cc(CNC(=O)CCCC/C=C/C(C)C)ccc1O [Capsaicin, 8-methyl-N-vanillyl-6-noneamide] | 1300 | more susceptible | 13000 | inhibition of the activity of the bacterially expressed protein (ttNOX (truncated tNOX)): complete; periodic NADH oxidase activity of induced bacterial extracts (ttNOX (truncated tNOX); in the presence of 1 or 100 μM capsaicin): no periodic activity
3 | (−)-epigallocatechin gallate [EGCg] | – | more susceptible | – | effect on activity of tNOX (tNOX): inhibits; effect on constitutive CNOX (CNOX): largely without effect
4 | Cc1ccc(S(=O)(=O)NC(=O)Nc2ccc(Cl)cc2)cc1 [LY181984, N-(4-methylphenylsulfonyl)-N′-(4-chlorophenyl)urea] | 3000 | – | 20000 | inhibition of NADH oxidase activity of induced bacterial extract (ttNOX (truncated tNOX); 1 μM): completely inhibited; oxygen uptake by HeLa plasma membranes [2]: inhibited
5 | COc1cccc2c1C(=O)c1c(O)c3c(c(O)c1C2=O)C[C@@](O)(C(=O)CO)C[C@@H]3O[C@H]1C[C@H](N)[C@H](O)[C@H](C)O1 [Adriamycin, adriamycin] | 40 | – | 300 | –
6 | Cc1ccc(S(=O)(=O)NC(=O)Nc2ccccc2)cc1 [LY181985, N-(4-methylphenylsulfonyl)-N′-(4-phenyl)urea] | – | – | – | growth inhibition ([1]; cells transfected with tNOX cDNA): did not inhibit; growth inhibition (COS cells; control cells transfected with vector alone): did not inhibit
